Numbered stars: 1 amine (or outer) side, 2 acyl side, 3 side chain; on linkers, the order of the positions; unused ones are H or OH. Square brackets hold non-standard residues; d marks the D form. Side chains are listed from the residue outwards. Peptide text beside a SMILES is read from it. * marks the point of attachment. C18 diacid = O=C(O)CCCCCCCCCCCCCCCCC(=O)*; γGlu = O=C(O)[C@H](CCC(=O)[*:2])N[*:1]; AEEA = NCCOCCOCC(=O)O; Aib = CC(C)(N)C(=O)O
What was measured:
DIO rats = experiment: Oral glucose tolerance in DIO rats at steady state; assay type: in vivo, rat; details: 3 nmol/kg s.c. once daily, 3 g/kg oral glucose, p<0.05
Description: Oral glucose tolerance was evaluated on study day 15, 5 h post-dosing (at Cmax). Animals were fasted for 5 h prior to oral administration of glucose (3 g/kg). […] Conscious animals were MR-scanned prior to initiation of treatment and at the end of the treatment period.

DIO mice [1] = experiment: Subchronic effect on energy expenditure in DIO mice (indirect calorimetry); assay type: in vivo, mouse; details: 5 nmol/kg s.c. once daily, eleven days
Description: DIO mice (n = 8) were treated once daily s.c. in the morning for eleven days with vehicle or 5 nmol/kg NN1177. Forty-eight hours prior to first dose and during the study, the metabolic phenotype was determined using the PhenoMaster system (TSE Systems GmbH, Bad Homburg, Germany). During this period, air flow, temperature, oxygen- and carbon dioxide content, oxygen uptake (VO2) and carbon dioxide production (VCO2) were simultaneously measured using standard indirect calorimetry analysis. The respiratory exchange rate (RER) and energy expenditure (EE) were calculated automatically from VO2 and VCO2. Furthermore, voluntary activity in x-y dimensions was determined. All parameters were measured simultaneously for one min per cage in two cages at a time, resulting in a time resolution of data points of 9 min. Statistical analysis was performed as one-way ANOVA followed by Dunnets post-hoc test. Statistics on body weight was performed as one-way ANOVA at the last day of treatment. Statistics on energy expenditure data was calculated using two-way ANOVA with repeated measures with Bonferroni’s post hoc test. Statistical analysis was performed on average light-dark period values (only raw data, no mean data is presented). p<0.05 was considered statistically significant. GraphPad Prism 6.4 (GraphPad) was used for all in vivo data visualization as well as statistical analyses.

Human GCGR = target: T1, Human GCGR (Homo sapiens, UniProt P47871); experiment: Receptor potency, CRE-luciferase functional assay in BHK cells; assay type: cell-based; details: Human receptors, whole BHK cells, 3 h 37°C, value (95% CI)
T1 construct: a plasmid encoding either the glucagon receptor or the GLP-1 receptor from the relevant species; expressed in transfected cells
Description: (§1) The binding assay was performed on cell membranes in the presence of 1% (v/v) species-specific heparin-treated pooled plasma (Bioreclamation IVT, Westbury, NY) diluted in assay buffer (50 mM HEPES supplemented with 5 mM EGTA, 5 mM MgCl2, and 0.005% (v/v) Tween 20, pH7.4). […] Cells stably expressing an individual receptor of interest were grown at 5% CO2, 37°C in DMEM (supplemented with 10% FCS, 0.5 mg/ml G418 and 0.3 mg/ml hygromycin). Membrane preparations were made from cells harvested at approximately 80% confluence, washed and homogenized in 20 mM HEPES with 0.1 mM EDTA, pH 7.4. Protein concentration was determined, and the membranes were stored at -80°C until use. The membrane binding assay was performed in a 96-well OptiPlate (PerkinElmer) in a total volume of 200 μl. Test compounds were dissolved in 80% DMSO and further diluted in assay buffer. 50 μl of diluted plasma was added to the assay plate wells followed by addition of test compounds (25 μl), cell membranes (50 μl, 0.06 mg/ml), SPA beads (20 mg/ml in assay buffer) and radioligand (60,000 cpm/well, corresponding to 0.06 nM; 2200 Ci/mmol. Each assay plate was incubated for 2 h at 30°C, centrifuged at 1500 rpm for 10 minutes and counted in a TopCount NXT instrument (PerkinElmer).
(§2) Functional assays were performed on whole cells in the absence or presence of 100% species-specific heparin-treated pooled plasma (Bioreclamation IVT). […] The cells were cultured with DMEM (supplemented with GlutaMAX, 10% FBS, 0.5 mg/ml G418 and 0.3 mg/ml hygromycin) at 5% CO2 and 37°C. At approximately 80–90% confluence, cells were washed with PBS and harvested with Versene (Life Technologies, Carlsbad, CA). The cells were counted and plated into 96-well microtiter plates coated with poly-D-Lys (Corning BioCoat) with 5,000 cells/well and thereafter incubated overnight in growth media. The next day the media was changed to assay buffer (DMEM without phenol red, supplemented with GlutaMAX, 10 mM HEPES, 1% ovalbumin and 0.1% Pluronic F-68) or to 100% plasma. In the absence of plasma, compounds were diluted in assay buffer. In assays tested with plasma, compounds were diluted in pure plasma. Buffer was removed from the plates and 50 μl of test compound dilutions was added to the plates followed by 50 μl of plasma or the same buffer used for compound dilution. The assay plates were incubated for 3 h in a 5% CO2 incubator at 37°C. The plates were then transferred to room temperature for 15 min and 100 μl Steadylite Plus reagent (PerkinElmer) was added to each well. The plates were shaken for 30 min at room temperature while protected from light after which luminescence was measured.
(§3) For the receptor binding assays, logIC50 values were calculated using non-linear regression analysis. The error estimation was reported as the 95% confidence interval. […] The calculations were performed in GraphPad Prism 6.4 (GraphPad, San Diego, CA) and error estimation was expressed as the 95% confidence interval. […] Averages, error estimation, ratios and plasma shifts were all calculated on logIC50 or logEC50 values and transformed to the anti-log values for reporting purposes.

Human GLP-1R = Human GLP-1R (Homo sapiens, UniProt P43220); experiment: as above; assay type: cell-based; details: Human receptors, whole BHK cells, 100% species-specific plasma, 3 h 37°C, value (95% CI)
Description: as §1, §2, §3

DIO mice [2] = experiment: Acute effect on glucose tolerance in DIO mice (IPGTT); assay type: in vivo, mouse; details: 3 or 5 nmol/kg s.c., at Cmax and at Cmin, p<0.001
Description: All animals received a single s.c. injection of compound at 4 pm, 21 h prior to administration of glucose (for all treated animals to have equally affected food intake in the dark period prior to the intraperitoneal glucose tolerance test (IPGTT)). […] Animals were fasted for 5–6 h prior to intraperitoneal (i.p.) injection of 2 g/kg glucose.

in vivo = details: mouse, sc
Description: Compound exposure was measured by Luminescence Oxygen Channeling Immunoassay (LOCI). […] The three reactants were combined with the analyte and formed a two-sited immuno-complex. Illumination of the complex released singlet oxygen […] from the donor beads. They were channeled into the acceptor beads and triggered a chemiluminescence response which was measured in an EnVision plate reader (PerkinElmer). The amount of light was proportional to the concentration of the analyte. As calibrators, a dilution line of the relevant analyte in rat/mouse plasma was included.
Plasma concentration-time profiles were analysed using non-compartmental analysis (NCA) using Phoenix WinNonlin Professional 6.3 (Pharsight, Mountain View, CA, US). Calculations were performed using full concentration-time profile values or sparse sampling concentration-time values as appropriate.

T1 sequence (P47871 26-477): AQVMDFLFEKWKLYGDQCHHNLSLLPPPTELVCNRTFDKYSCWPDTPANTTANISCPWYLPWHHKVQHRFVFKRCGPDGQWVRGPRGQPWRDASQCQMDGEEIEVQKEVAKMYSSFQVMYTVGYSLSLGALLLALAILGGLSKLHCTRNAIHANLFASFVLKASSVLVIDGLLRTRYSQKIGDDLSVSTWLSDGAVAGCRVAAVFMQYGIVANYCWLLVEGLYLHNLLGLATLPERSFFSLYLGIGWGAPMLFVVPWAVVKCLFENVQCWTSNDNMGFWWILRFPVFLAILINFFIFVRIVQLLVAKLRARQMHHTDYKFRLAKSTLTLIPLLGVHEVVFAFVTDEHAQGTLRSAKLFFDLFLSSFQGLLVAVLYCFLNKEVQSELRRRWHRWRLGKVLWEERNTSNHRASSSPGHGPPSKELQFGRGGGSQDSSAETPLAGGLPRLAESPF
Human GLP-1R, sequence (P43220 24-463): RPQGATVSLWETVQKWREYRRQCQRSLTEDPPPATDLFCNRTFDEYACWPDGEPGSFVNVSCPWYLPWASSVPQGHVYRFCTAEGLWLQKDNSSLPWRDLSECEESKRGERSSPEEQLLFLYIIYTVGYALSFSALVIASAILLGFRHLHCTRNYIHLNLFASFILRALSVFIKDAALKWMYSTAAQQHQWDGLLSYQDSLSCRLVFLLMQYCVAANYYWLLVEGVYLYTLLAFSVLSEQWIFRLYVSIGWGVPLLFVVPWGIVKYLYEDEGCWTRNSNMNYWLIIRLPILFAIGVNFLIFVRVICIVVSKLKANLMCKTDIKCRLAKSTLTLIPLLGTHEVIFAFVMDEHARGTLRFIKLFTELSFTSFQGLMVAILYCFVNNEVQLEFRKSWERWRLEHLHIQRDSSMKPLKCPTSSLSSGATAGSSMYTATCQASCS

Row | Compound | Oral glucose tolerance vs vehicle (DIO rats) | Body weight loss during treatment period (DIO mice [1]) | Physical activity (DIO mice [1]) | Respiratory exchange ratio (RER) (DIO mice [1]; light and dark period, p<0.001) | Energy expenditure per body weight (DIO mice [1]; light and dark period, p<0.01 day 3, p<0.001 day 5–11) | EC50 (Human GCGR; GCGR EC50, pM (95% CI) 0% plasma, 0% plasma) | EC50 (Human GCGR; GCGR EC50, pM (95% CI) 100% plasma, 100% species-specific plasma) | EC50 (Human GLP-1R) | Glucose tolerance (IPGTT) vs vehicle (DIO mice [2]; 2 g/kg glucose i.p.) | Basal blood glucose vs vehicle (DIO mice [2]) | half-life (in vivo)
1 | CC(C)C[C@H](NC(=O)[C@H](Cc1ccc(O)cc1)NC(=O)[C@H](CCCCN)NC(=O)[C@H](CO)NC(=O)[C@H](CC(C)C)NC(=O)[C@H](CC(=O)O)NC(=O)[C@H](CO)NC(=O)[C@@H](NC(=O)[C@H](Cc1ccccc1)NC(=O)[C@@H](NC(=O)CNC(=O)[C@H](CCC(N)=O)NC(=O)C(C)(C)NC(=O)[C@@H](N)Cc1c[nH]cn1)[C@@H](C)O)[C@@H](C)O)C(=O)N[C@@H](CCC(=O)O)C(=O)N[C@@H](CO)C(=O)N[C@@H](CCCCN)C(=O)N[C@@H](CCCNC(=N)N)C(=O)N[C@@H](C)C(=O)N[C@@H](CCCNC(=N)N)C(=O)N[C@@H](CCC(=O)O)C(=O)N[C@@H](Cc1ccccc1)C(=O)N[C@H](C(=O)N[C@@H](CCC(N)=O)C(=O)N[C@@H](Cc1c[nH]c2ccccc12)C(=O)N[C@@H](CC(C)C)C(=O)N[C@@H](CC(C)C)C(=O)N[C@@H](CCCCNC(=O)CC[C@H](NC(=O)CC[C@H](NC(=O)[C@H](CO)NC(=O)[C@H](CCC(=O)O)NC(=O)[C@H](CO)NC(=O)CC[C@H](NC(=O)CC[C@H](NC(=O)CCCCCCCCCCCCCCCCC(=O)O)C(=O)O)C(=O)O)C(=O)O)C(=O)O)C(=O)N[C@H](C(N)=O)[C@@H](C)O)C(C)C [NN1177] (H-H[Aib]QGTFTSDLSKYLESKRAREFVQWLLK([γGlu-γGlu-Ser-Glu-Ser-γGlu-γGlu-C18 diacid])T-NH2) | significantly impaired | approximately 30% | not affected | decreased significantly | increased | 1.83 pM | 312 pM | 149 pM | improved | improved | 
2 | CC(C)C[C@H](NC(=O)[C@H](CC(C)C)NC(=O)[C@H](Cc1c[nH]c2ccccc12)NC(=O)[C@H](CCC(N)=O)NC(=O)[C@@H](NC(=O)[C@H](Cc1ccccc1)NC(=O)[C@H](CCC(=O)O)NC(=O)[C@H](CCCNC(=N)N)NC(=O)[C@H](C)NC(=O)[C@H](C)NC(=O)[C@H](CCCNC(=N)N)NC(=O)[C@H](CO)NC(=O)[C@H](CC(=O)O)NC(=O)[C@H](CC(C)C)NC(=O)[C@H](Cc1ccc(O)cc1)NC(=O)[C@H](CCCCN)NC(=O)[C@H](CO)NC(=O)[C@H](CC(C)C)NC(=O)[C@H](CC(=O)O)NC(=O)[C@H](CO)NC(=O)[C@@H](NC(=O)[C@H](Cc1ccccc1)NC(=O)[C@@H](NC(=O)CNC(=O)[C@H](CCC(=O)O)NC(=O)C(C)(C)NC(=O)[C@@H](N)Cc1c[nH]cn1)[C@@H](C)O)[C@@H](C)O)C(C)C)C(=O)N[C@@H](CC(N)=O)C(=O)N[C@@H](CCCCNC(=O)CC[C@H](NC(=O)CC[C@H](NC(=O)COCCOCCNC(=O)COCCOCCNC(=O)CC[C@H](NC(=O)CCCCCCCCCCCCCCCCC(=O)O)C(=O)O)C(=O)O)C(=O)O)C(N)=O [GLP-1 reference] (H-H[Aib]EGTFTSDLSKYLDSRAAREFVQWLLNK([γGlu-γGlu-AEEA-AEEA-γGlu-C18 diacid])-NH2) |  |  |  |  |  |  |  |  |  |  | 11 h
